The source of these data is US8778941B2, “TRPM8 antagonists and their use in treatments” (AMGEN Inc., priority 2011, dated 2014).

One assay addresses T1, human TRPM8 (Homo sapiens, UniProt Q7Z2W7).
T1 construct: expressed in transfected cells; host or cells: Chinese hamster ovary (CHO) cells, T-REx tetracycline-inducible expression system (Invitrogen), co-transfected with pcDNA3.1 jellyfish aequorin
Nature of the assay: Luminescence readout assay for measuring intracellular calcium (aequorin), hTRPM8 antagonism. Type of assay: cell-based. Conditions: CHO cell line expressing human TRPM8 and aequorin; activation by icilin, L-menthol or cold buffer (table does not say which).

A further assay deals with male C57BL/6 mice. The experiment in a line: Inhibition of icilin induced jumping in mice. Conditions: given 1 hour before icilin (i.p. 20 mg/kg), jumps counted 10 minutes post-icilin. The class given is in vivo. The protocol: Icilin Biochemical Challenge Models
Inhibition of Icilin Induced Jumping in Mice
Example compounds at doses ranging from 0.01 to 10 mg/kg were administered to male C57BL/6 mice (18-25 g, Taconic, n=10/treatment) 1 hour before icilin to assess the ability to block the spontaneous jumps induced by icilin (i.p. suspended in 100% PEG400 at 20 mg/kg, 5 mL/kg). The total number of jumps was recorded during the 10 minutes post-icilin administration based on the number of photocell beam breaks from the vertical array of open field boxes (Kinder Scientific) while movement of the mice was restricted within a clear Plexiglas® cylinder 9.5 cm diameter×30 cm height.

T1 sequence (Q7Z2W7 whole entry): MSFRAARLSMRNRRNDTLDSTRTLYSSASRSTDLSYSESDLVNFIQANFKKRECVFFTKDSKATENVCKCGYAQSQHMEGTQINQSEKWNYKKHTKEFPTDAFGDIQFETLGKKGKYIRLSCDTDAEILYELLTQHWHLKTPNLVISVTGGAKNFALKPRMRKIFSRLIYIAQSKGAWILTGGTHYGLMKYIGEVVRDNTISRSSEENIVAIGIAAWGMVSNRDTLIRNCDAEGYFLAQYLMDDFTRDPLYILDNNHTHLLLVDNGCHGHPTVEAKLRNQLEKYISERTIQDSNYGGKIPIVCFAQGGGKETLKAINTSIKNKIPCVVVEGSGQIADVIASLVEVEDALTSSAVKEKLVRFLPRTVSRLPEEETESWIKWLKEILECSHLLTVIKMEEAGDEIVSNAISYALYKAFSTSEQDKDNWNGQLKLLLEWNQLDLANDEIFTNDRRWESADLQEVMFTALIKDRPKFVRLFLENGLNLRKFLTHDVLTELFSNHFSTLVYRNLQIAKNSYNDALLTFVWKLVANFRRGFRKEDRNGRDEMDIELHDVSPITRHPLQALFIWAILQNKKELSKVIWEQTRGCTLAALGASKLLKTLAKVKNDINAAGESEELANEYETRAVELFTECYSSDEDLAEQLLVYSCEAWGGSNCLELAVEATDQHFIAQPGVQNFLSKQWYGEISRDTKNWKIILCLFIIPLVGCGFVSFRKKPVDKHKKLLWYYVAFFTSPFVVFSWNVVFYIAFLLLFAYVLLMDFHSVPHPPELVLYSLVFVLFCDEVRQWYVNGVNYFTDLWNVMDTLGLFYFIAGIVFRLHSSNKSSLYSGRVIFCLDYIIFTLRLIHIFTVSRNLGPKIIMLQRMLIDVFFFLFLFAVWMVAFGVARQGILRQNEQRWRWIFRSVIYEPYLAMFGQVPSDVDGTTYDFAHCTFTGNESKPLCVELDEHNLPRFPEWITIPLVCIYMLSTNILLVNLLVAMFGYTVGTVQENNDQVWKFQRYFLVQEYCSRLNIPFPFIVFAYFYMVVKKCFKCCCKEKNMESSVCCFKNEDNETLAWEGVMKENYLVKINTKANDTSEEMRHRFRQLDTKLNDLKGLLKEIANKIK

On to `O=C(Nc1cccnc1)N[C@@H](c1ccc(C(F)(F)F)c(F)c1)c1ncccc1C(F)(F)F` [Example 1, (S)-1-((3-Fluoro-4-(trifluoromethyl)phenyl)(3-(trifluoromethyl)-pyridin-2-yl)methyl)-3-(pyridin-3-yl)urea bis(2,2,2-trifluoroacetate)], for which the half-inhibitory concentration (IC50) on human TRPM8 turned out to be 23 nM. For the same compound, the “% Inhibition of Mouse Jumping” value with male C57BL/6 mice (dose 10 mg/kg) is reported as 75%.

Consider `O=C(Nc1cccnc1)N[C@@H](c1ccc(C(F)(F)F)c(F)c1)c1ncccc1F` [Example 29, (S)-1-((3-fluoro-4-(trifluoro-methyl)-phenyl)(3-fluoropyridin-2-yl)methyl)-3-(pyridin-3-yl)urea], for which the concentration for half-maximal inhibition (IC50) on human TRPM8 amounted to 17 nM. The “% Inhibition of Mouse Jumping” value with male C57BL/6 mice (dose 10 mg/kg) is listed as 96%.

As for `O=C(Nc1cccnc1)N[C@@H](c1ccc(C(F)(F)F)cc1)c1ncccc1C(F)(F)F` [Example 44, (S)-1-(pyridin-3-yl)-3-((4-(trifluoro-methyl)-phenyl)(3-(trifluoro-methyl)-pyridin-2-yl)-methyl)urea], the half-inhibitory concentration (IC50) at human TRPM8 was 23 nM. Besides, the “% Inhibition of Mouse Jumping” value in the assay with male C57BL/6 mice (dose 10 mg/kg) was found to be 74%.

Turning to `CC#Cc1cccnc1[C@@H](NC(=O)Nc1cccnc1)c1ccc(C(F)(F)F)cc1` [Example 51, (S)-1-((3-(prop-1-yn-1-yl)pyridin-2-yl)(4-(trifluoro-methyl)-phenyl)-methyl)-3-(pyridin-3-yl)-urea], the IC50 on human TRPM8 amounted to 37 nM. In addition, the “% Inhibition of Mouse Jumping” value in the assay on male C57BL/6 mice (dose 10 mg/kg) was found to be 76%.

Regarding `CC1(C)C[C@H]1c1cccnc1[C@@H](NC(=O)Nc1cccnc1)c1ccc(C(F)(F)F)cc1` [Example 61, 1-((S)-(3-((R)-2,2-dimethylcyclopropyl)-pyridin-2-yl)-(4-(trifluoro-methyl)-phenyl)-methyl)-3-(pyridin-3-yl)-urea], at human TRPM8, the IC50 came to 62 nM. In addition, in the assay on male C57BL/6 mice (dose 10 mg/kg), the “% Inhibition of Mouse Jumping” value was found to be 90%.

`C[C@H](NC(=O)N[C@@H](c1ccc(C(F)(F)F)c(F)c1)c1ncccc1C(F)(F)F)C(F)(F)F` [Example 151, 1-((S)-(3-fluoro-4-(trifluoro-methyl)-phenyl)(3-(trifluoro-methyl)-pyridin-2-yl)-methyl)-3-((S)-1,1,1-trifluoro-propan-2-yl)-urea (2,2,2-trifluoro-acetate)]: the half-inhibitory concentration (IC50) at human TRPM8 is 39 nM. Besides, in the assay on male C57BL/6 mice (dose 3 mg/kg), the “% Inhibition of Mouse Jumping” value amounted to 30%.

Take `O=C(N[C@@H](c1ccc(C(F)(F)F)c(F)c1)c1ncccc1C(F)(F)F)N1CCOCC1` [Example 167, (S)—N-((3-Fluoro-4-(trifluoromethyl)phenyl)(3-(trifluoromethyl)pyridin-2-yl)methyl)morpholine-4-carboxamide 2,2,2-trifluoroacetate]: the IC50 at human TRPM8 turned out to be 328 nM.

Turning to `CCCc1cccnc1[C@@H](NC(=O)Nc1cccnc1)c1ccc(C(F)(F)F)cc1` [Example 168, (S)-1-((3-Propylpyridin-2-yl)(4-(trifluoromethyl)phenyl)-methyl)-3-(pyridin-3-yl)urea], on human TRPM8, the IC50 worked out at 67 nM.

`CC(C)(C)OC(=O)N[C@@H](c1ccc(C(F)(F)F)cc1)c1ccccn1` [Example 169, (S)-tert-Butyl(pyridin-2-yl(4-(trifluoromethyl)phenyl)methyl)-carbamate 2,2,2-trifluoroacetate]: the 50% inhibitory concentration (IC50) at human TRPM8 was 663 nM.

Take `CCOC(=O)N[C@@H](c1ccc(C(F)(F)F)cc1)c1ncccc1C(F)(F)F` [Example 170, (S)-Ethyl((4-(trifluoromethyl)phenyl)(3-(trifluoromethyl)-pyridin-2-yl)methyl)carbamate]: the half-maximal inhibitory concentration (IC50) on human TRPM8 was 147 nM.

In the case of `O=C(Nc1ccc(F)cc1)NC(c1ccccc1)c1ccc(C(F)(F)F)cc1` (stereo not shown) [Example 171, 1-(4-Fluorophenyl)-3-(phenyl(4-(trifluoromethyl)phenyl)-methyl)urea], the concentration for half-maximal inhibition (IC50) at human TRPM8 came to 915 nM.

For `O=C(N[C@@H](c1ccc(C(F)(F)F)cc1)c1ccccn1)OCc1ccccc1` [Example 172, (S)-Benzyl(pyridin-2-yl(4-(trifluoromethyl)phenyl)methyl)-carbamate 2,2,2-trifluoroacetate], the IC50 at human TRPM8 is 360 nM.

As to `CC(C)(C)OC(=O)N[C@@H](c1ccc(C(F)(F)F)cc1)c1ncccc1Br` [Example 173, (S)-tert-Butyl((3-bromopyridin-2-yl)(4-(trifluoromethyl)-phenyl)methyl)carbamate], the IC50 on human TRPM8 turned out to be 299 nM.

`CC(C)(C)OC(=O)N[C@@H](c1ccc(OC(F)(F)F)c(F)c1)c1ncccc1F` [Example 174, (S)-tert-Butyl((3-fluoro-4-(trifluoromethoxy)phenyl)(3-fluoropyridin-2-yl)methyl)carbamate]: the IC50 on human TRPM8 came to 474 nM.

Take `CC(C)OC(=O)N[C@@H](c1ccc(OC(F)(F)F)c(F)c1)c1ncccc1F` [Example 175, (S)-isopropyl ((3-fluoro-4-(trifluoromethoxy)phenyl)(3-fluoropyridin-2-yl)methyl)carbamate]: the IC50 on human TRPM8 worked out at 68 nM.

As to `O=C(N[C@@H](c1ccc(OC(F)(F)F)c(F)c1)c1ncccc1F)OC1CCOCC1` [Example 176, (S)-tetrahydro-2H-pyran-4-yl ((3-fluoro-4-(trifluoromethoxy)phenyl)(3-fluoropyridin-2-yl)methyl)carbamate], the IC50 on human TRPM8 came out at 211 nM.

As to `O=C(N[C@@H](c1ccc(OC(F)(F)F)c(F)c1)c1ncccc1F)OC1COC1` [Example 177, (S)-oxetan-3-yl ((3-fluoro-4-(trifluoromethoxy)phenyl)(3-fluoropyridin-2-yl)methyl)carbamate], the IC50 on human TRPM8 came to 517 nM.

Regarding `O=C1CCC(OC(=O)N[C@@H](c2ccc(OC(F)(F)F)c(F)c2)c2ncccc2F)CN1` (stereo partly drawn) [Example 178, 6-Oxopiperidin-3-yl((S)-(3-fluoro-4-(trifluoromethoxy)phenyl)(3-fluoropyridin-2-yl)methyl)carbamate], the half-inhibitory concentration (IC50) on human TRPM8 amounted to 2060 nM.

Consider `O=C(Nc1cccc2ncccc12)N[C@@H](c1ccc(C(F)(F)F)cc1)c1ncccc1C(F)(F)F` [Example 179, (S)-1-(Quinolin-5-yl)-3-((4-(trifluoromethyl)phenyl)(3-(trifluoromethyl)pyridin-2-yl)methyl)urea], for which the IC50 on human TRPM8 is 77 nM.

Turning to `O=C(Nc1ccc(C(=O)O)cc1)N[C@@H](c1ccc(OC(F)(F)F)c(F)c1)c1ncccc1F` [Example 180, (S)-4-(3-((3-Fluoro-4-(trifluoromethoxy)phenyl)(3-fluoropyridin-2-yl)methyl)ureido)benzoic acid], the half-maximal inhibitory concentration (IC50) on human TRPM8 was found to be 3240 nM.

Take `O=C(Nc1ccccc1Cl)N[C@@H](c1ccc(C(F)(F)F)cc1)c1ncccc1C(F)(F)F` [Example 181, (S)-1-(2-chlorophenyl)-3-((4-(trifluoro-methyl)phenyl) (3-(trifluoro-methyl)pyridin-2-yl)methyl)urea (2,2,2-trifluoro-acetate)]: the half-inhibitory concentration (IC50) on human TRPM8 was determined as 142 nM.

With `COC(=O)c1cccc(NC(=O)N[C@@H](c2ccc(C(F)(F)F)cc2)c2ncccc2C(F)(F)F)c1C` [Example 182, (S)-methyl 2-methyl-3-(3-((4-(trifluoro-methyl)phenyl) (3-(trifluoro-methyl)pyridin-2-yl)methyl)ureido)benzoate (2,2,2-trifluoro-acetate)], the 50% inhibitory concentration (IC50) at human TRPM8 was 425 nM.

`COc1ccc(C)cc1NC(=O)N[C@@H](c1ccc(C(F)(F)F)cc1)c1ncccc1C(F)(F)F` [Example 183, (S)-1-(2-methoxy-5-methylphenyl)-3-((4-(trifluoro-methyl)phenyl) (3-(trifluoro-methyl)pyridin-2-yl)methyl)urea (2,2,2-trifluoro-acetate)]: at human TRPM8, the IC50 is 560 nM.

For the compound `O=C(NCc1ccc(Cl)c(Cl)c1)N[C@@H](c1ccc(C(F)(F)F)cc1)c1ncccc1C(F)(F)F` [Example 184, (S)-1-(3,4-dichlorobenzyl)-3-((4-(trifluoro-methyl)phenyl) (3-(trifluoro-methyl)pyridin-2-yl)methyl)urea (2,2,2-trifluoro-acetate)], the IC50 at human TRPM8 came out at 583 nM.

As to `O=C(NC1CCCc2ccccc21)N[C@@H](c1ccc(C(F)(F)F)cc1)c1ncccc1C(F)(F)F` (stereo partly drawn) [Example 185, 1-(1,2,3,4-tetrahydro-naphthalen-1-yl)-3-((S)-(4-(trifluoromethyl)phenyl)(3-(trifluoromethyl)pyridin-2-yl)methyl)urea (2,2,2-trifluoro-acetate)], at human TRPM8, the IC50 was 739 nM.

Regarding `Cc1cc(C)c(NC(=O)N[C@@H](c2ccc(C(F)(F)F)cc2)c2ncccc2C(F)(F)F)c(C)c1` [Example 186, (S)-1-mesityl-3-((4-(trifluoro-methyl)phenyl) (3-(trifluoro-methyl)pyridin-2-yl)methyl)urea (2,2,2-trifluoro-acetate)], the IC50 at human TRPM8 came to 1110 nM.

As for `CCOC(=O)c1ccc(NC(=O)N[C@@H](c2ccc(C(F)(F)F)cc2)c2ncccc2C(F)(F)F)cc1` [Example 187, (S)-ethyl 4-(3-((4-(trifluoro-methyl)phenyl) (3-(trifluoro-methyl)pyridin-2-yl)methyl)ureido)benzoate (2,2,2-trifluoro-acetate)], the IC50 on human TRPM8 amounted to 1550 nM.

As for `O=C(Nc1cccnc1)N[C@@H](c1ccc(OC(F)(F)F)c(F)c1)c1ncccc1F` [Example 188, (S)-1-((3-fluoro-4-(trifluoro-methoxy)phenyl) (3-fluoropyridin-2-yl)methyl)-3-(pyridin-3-yl) urea], the 50% inhibitory concentration (IC50) on human TRPM8 was 7 nM.
